# Reference: patent US8445529B2, “Indole derivative having, carbamoyl group, ureido group and substituted oxy group” (Santen Pharmaceutical Co., Ltd., priority 2008, dated 2013)
# Target: T1, IKKβ (Homo sapiens, UniProt O14920)
# T1 construct: purchased Upstate Biotechnology Inc. 14-485
# T1 sequence (O14920 1-756): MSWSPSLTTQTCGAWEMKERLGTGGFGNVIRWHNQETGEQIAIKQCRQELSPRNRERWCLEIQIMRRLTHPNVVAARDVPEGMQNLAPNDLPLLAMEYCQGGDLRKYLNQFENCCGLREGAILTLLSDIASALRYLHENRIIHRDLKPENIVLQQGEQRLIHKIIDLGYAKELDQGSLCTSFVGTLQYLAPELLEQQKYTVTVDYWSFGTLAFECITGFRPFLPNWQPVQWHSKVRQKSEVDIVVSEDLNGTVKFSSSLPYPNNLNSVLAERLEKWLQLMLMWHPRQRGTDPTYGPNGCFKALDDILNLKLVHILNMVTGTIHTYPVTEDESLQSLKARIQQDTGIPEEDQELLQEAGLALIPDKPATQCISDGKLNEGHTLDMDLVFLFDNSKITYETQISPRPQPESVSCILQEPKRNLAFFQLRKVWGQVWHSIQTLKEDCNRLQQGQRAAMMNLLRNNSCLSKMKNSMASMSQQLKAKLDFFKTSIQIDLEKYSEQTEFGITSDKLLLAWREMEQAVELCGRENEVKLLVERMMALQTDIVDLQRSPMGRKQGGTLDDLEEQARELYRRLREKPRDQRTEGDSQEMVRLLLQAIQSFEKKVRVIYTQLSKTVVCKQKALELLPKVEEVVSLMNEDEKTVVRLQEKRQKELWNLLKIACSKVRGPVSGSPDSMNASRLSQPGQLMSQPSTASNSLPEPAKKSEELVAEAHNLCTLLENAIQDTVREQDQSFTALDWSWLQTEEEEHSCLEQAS
# Assay: IKKβ inhibition assay by fluorescence polarization (IMAP kit)
# Type: biochemical
# Settings: test compound at 1 μM; inhibition rate exceeding 100% is indicated as 100%
# Method: Details of the above will be described in detail in [Pharmacological Test] in Examples described below in this specification. IKKβ inhibition assay by fluorescence polarization was performed using IMAP™ IKKβ assay kit (manufactured by Molecular Devices Corporation, catalogue No. R8115) or IMAP™ FP Screening Express kit (manufactured by Molecular Devices Corporation, catalogue No. R8127).
# In order to evaluate IKKβ inhibitory activity of the present compounds, an IKKβ inhibition assay by a fluorescence polarization method was conducted. The assay was conducted using IMAP™ IKKβ assay kit (manufactured by Molecular Devices Corporation, catalogue No. R8115) or IMAP™ FP Screening Express kit (manufactured by Molecular Devices Corporation, catalogue No. R8127) in accordance with the protocol attached to each kit. The specific methods are described below.
# 1) Complete Reaction Buffer: a complete reaction buffer was so prepared to obtain a final composition of 10 mM Tris-HCL (pH 7.2), 10 mM magnesium chloride, 0.1% bovine serum albumin, and 1 mM dithiothreitol.
# 2) Substrate Working Solution: 400 nM substrate working solution was prepared by dissolving and diluting a fluorescein-labeled IKKβ substrate peptide (amino acid sequence: GRHDSGLDSMK) with the complete reaction buffer.
# 3) Enzyme Working Solution: 0.2 units/mL enzyme working solution was prepared by diluting IKKβ solution (manufactured by Upstate Biotechnology Inc., catalogue No. 14-485) with the complete reaction buffer.
# 4) ATP Working Solution: 8 μM ATP working solution was prepared by dissolving ATP into ultrapure water followed by diluting it with the complete reaction buffer.
# 5) IMAP binding solution: After diluting an IMAP binding buffer with ultrapure water, an IMAP binding solution was prepared by diluting an IMAP binding reagent with the diluted IMAP binding buffer.
# A test compound was dissolved in dimethyisulfoxide followed by diluting it with the complete reaction buffer to prepare 4 μM test compound solution.
# 1) To a 384-well plate, the test compound solution, the enzyme working solution, the substrate working solution, and the ATP working solution were added in an amount of 5 μL per well.
# 2) Incubation was performed at room temperature for 60 minutes under light shielding.
# 3) The IMAP binding solution was added in an amount of 60 μL per well.
# 4) Incubation was performed at room temperature for 30 minutes under light shielding.
# 5) Fluorescence polarization value of each well was measured by using Analyst™ HT (multimode plate reader manufactured by Molecular Devices Corporation) and Criterion Host Software v2.00 (manufactured by Molecular Devices Corporation).
# 6) Operations were performed in the same manner as in 1) to 5) except for changing the test compound to 0.4% dimethylsulfoxide. The obtained result was designated as a control.
# 7) Operations were performed in the same manner as in 1) to 5) except for changing the test compound and the enzyme working solution to 0.4% dimethylsulfoxide and the complete reaction buffer, respectively. The obtained result was designated as a background.
# An IKKβ inhibition rate (%) was calculated by the following equation.
# IKKβ inhibition rate (%)=100×{1-(fluorescence polarization value of test compound−fluorescence polarization value of background)/(fluorescence polarization value of control−fluorescence polarization value of background)}
row,SMILES,inhibition at 1 µM [%]
1,"COc1ccc2c(C(N)=O)c(NC(N)=O)[nH]c2c1 [Compound No. 1-1, 2-Aminocarbonylamino-6-methoxyindole-3-carboxamide]",95
2,"COc1cccc2c(C(N)=O)c(NC(N)=O)[nH]c12 [Compound No. 1-3, 2-Aminocarbonylamino-7-methoxyindole-3-carboxamide]",78
3,"COc1ccc(F)c2c(C(N)=O)c(NC(N)=O)[nH]c12 [Compound No. 1-4, 2-Aminocarbonylamino-4-fluoro-7-methoxyindole-3-carboxamide]",60
4,"NC(=O)Nc1[nH]c2cc(O)ccc2c1C(N)=O [Compound No. 2-1, 2-Aminocarbonylamino-6-hydroxyindole-3-carboxamide]",90
5,"NC(=O)Nc1[nH]c2cc(OCC3CC3)ccc2c1C(N)=O [Compound No. 3-2, 2-Aminocarbonylamino-6-cyclopropylmethyloxyindole-3-carboxamide]",91
6,"NC(=O)Nc1[nH]c2cc(Oc3ccc([N+](=O)[O-])cc3)ccc2c1C(N)=O [Compound No. 4-1, 2-Aminocarbonylamino-6-(4-nitrophenyloxy)indole-3-carboxamide]",100
7,"NC(=O)Nc1[nH]c2cc(Oc3ccnc(Cl)c3)ccc2c1C(N)=O [Compound No. 4-3, 2-Aminocarbonylamino-6-(2-chloropyridine-4-yloxy)indole-3-carboxamide]",89
8,"Cc1cc([N+](=O)[O-])ccc1Oc1ccc2c(C(N)=O)c(NC(N)=O)[nH]c2c1 [Compound No. 4-6, 2-Aminocarbonylamino-6-(2-methyl-4-nitrophenyloxy)indole-3-carboxamide]",97
9,"CC(=O)Nc1ccc(Oc2ccc3c(C(N)=O)c(NC(N)=O)[nH]c3c2)cc1 [Compound No. 6-1, 6-(4-Acetylaminophenyloxy)-2-(aminocarbonylamino)indole-3-carboxamide]",98
10,"C=Cc1cc(F)c2c(C(N)=O)c(NC(N)=O)[nH]c2c1OC [Compound No. 8-2, 2-Aminocarbonylamino-4-fluoro-7-methoxy-6-vinylindole-3-carboxamide]",91
11,"COc1c(-c2ccoc2)cc(F)c2c(C(N)=O)c(NC(N)=O)[nH]c12 [Compound No. 8-3, 2-Aminocarbonylamino-4-fluoro-6-(furan-3-yl)-7-methoxyindole-3-carboxamide]",87
12,"NC(=O)Nc1[nH]c2cc(Oc3ccc(Cl)cc3)ccc2c1C(N)=O [Compound No. 9-1, 2-Aminocarbonylamino-6-(4-chlorophenyloxy)indole-3-carboxamide]",92
